Data taken from patent publication US20210275521A1, “OXABICYCLOHEPTANES FOR TREATMENT OF SECONDARY ACUTE MYELOID LEUKEMIA” (Lixte Biotechnology, Inc., priority 2017, published 2021).

Columns and labels:
SKM-1 = test: MTT cytotoxicity assay, SKM-1 (sAML cell line); assay type: cell-based, human; details: for SKM-1 cell viability: 24h incubation
Description: (§1) The following five human leukemia cell lines were obtained from the Shanghai Institute of Cell Biology (Shanghai, China): Kasumi-1, HL-60, THP-1, U937 and K562. The SICM-1 leukemia cell line was acquired from the Health Science Research Resources Bank (Osaka, Japan), established from a patient with MDS that had progressed to myelomonocytic leukemia.
(§2) Cells were seeded into 96-well microtiter plates (Nunc, Roskilde, Denmark) at densities of either 1×10^5 cells/ml (established cell lines) or 5×10^5 cells/ml (primary AML cells). […] After exposure, 20 μl of 3-(4, 5-dimethylthiazol-2-yl)-2, 5-diphenylterazolium bromide solution (MTT, Sigma-Aldrich) was added to each well. The plates were then incubated for 4 h at 37° C. The MTT-containing solution was then aspirated away, 200 μI DMSO added to each well, and absorbance at 570 nm was measured.

SKM-1 xenografts = test: In vivo tumorigenicity assay, SKM-1 xenograft; set-up: species or system NOD/SCID mice; details: 2 mg/kg i.p. every other day for 14d, vs control
Description: All animal studies were performed according to the guidelines of Animal Care and Use Committee of the First Affiliated Hospital of Zhejiang University and met the NIH guidelines for the care and use of laboratory animals. And all animal studies were approved by IACUC committee of the First Affiliated Hospital of Zhejiang University. Nonobese diabetic/severe combined immunodeficiency (NOD/SCID) mice aged 6 weeks were purchased from the Shanghai Experimental Animal Center of the Chinese Academy of Sciences (Shanghai, China). SKM-1 cells (5×106 in 100 μl PBS) were injected subcutaneously into the right flank of each mouse. By 10-14d, when the tumor volumes had reached 90-110 mm3, the mice were randomly divided into four groups: DNR LB100, DNR only, LB100 only, and control. Mice were injected intraperitoneally (i.p.) with 2 mg/kg DNR and/or 2 mg/kg LB100, every other day for a total of 14d. Control mice were injected with an equal volume of PBS. Tumor size was monitored every 3d based on caliper measurements of the two perpendicular diameters; tumor volume was calculated using the formula V=(width′×length×it/6).

U937 = test: MTT cytotoxicity assay, U937; assay type: cell-based; details: Homo sapiens, U-937; U937, at 4 h after treatment
Description: as §1, §2

miR-181b-1 [1] = test: Quantitation of miR-181b-1 by real-time quantitative RT-PCR; assay type: cell-based, human; details: SKM-1, normalized to U6 RNA, vs control
From the text: Total miRNA was extracted from 1×10^6 SKM-1 cells using the RNAiso kit for small RNA (TaKaRa, Japan), and reverse-transcribed using the One Step PrimeScript miRNA cDNA Synthesis Kit (TaKaRa, Japan). The resulting cDNA was quantified using the iCycler Real-time PCR Detection System (BioRad, Calif., USA) and SYBR Green (Takara, Japan). The expression of miR-181b-1 was quantified relative to the expression of human U6 small nuclear RNA using the 2-°° c.′ method.

THP-1 = test: MTT cytotoxicity assay, THP-1; assay type: cell-based; details: Homo sapiens; THP-1, at 4 h after treatment
Description: as §1, §2

HL-60 = test: MTT cytotoxicity assay, HL-60; assay type: cell-based; details: Homo sapiens; HL-60, at 4 h after treatment
Description: as §1, §2

K562 = test: MTT cytotoxicity assay, K562; assay type: cell-based; details: Homo sapiens; K562, at 4 h after treatment
Description: as §1
(§3) Cells were seeded into 96-well microtiter plates (Nunc, Roskilde, Denmark) at densities of either 1×10^5 cells/ml (established cell lines) or 5×10^5 cells/ml (primary AML cells). Cultures were exposed to different drugs for 24 h. After exposure, 20 μl of 3-(4, 5-dimethylthiazol-2-yl)-2, 5-diphenylterazolium bromide solution (MTT, Sigma-Aldrich) was added to each well. The plates were then incubated for 4 h at 37° C. The MTT-containing solution was then aspirated away, 200 μI DMSO added to each well, and absorbance at 570 nm was measured.

SKM-1 cells [2] = test: Cell cycle analysis by flow cytometry; assay type: cell-based, human; details: 12 h exposure at 5 μM
Description: Cells were collected after being fixed overnight in 75% ethanol at −20° C. Fixed cells were washed twice with PBS, then incubated for 30 min with RNase A and propidium iodide (10 μg/ml). Cell cycle analysis was performed using a BDL SRII Flow Cytometer and FACSDiva Software (BD Bioscience, Franklin Lakes, USA). Raw data was analyzed using ModFit LT 3.2 software (Verity Software House, Topsham, USA).

SKM-1 cells [3] = test: Annexin V and propidium iodide flow-cytometry apoptosis assay; assay type: cell-based, human; details: for rate of apoptosis: LB100 10 μM 24 h
Description: Cells were seeded into 6-well plates, and treated for 24h at 37° C. with different concentrations of LB100 (0, 1.25, 2.5, 5,10 μM). After washing with PBS, aliquots of the cells were resuspended in binding buffer, and stained with 5 μl Annexin V and 5 μl propidium iodide (Biouniquer, Nanjing, China) according to the manufacturer's instructions. Fluorescence-activated cell sorting (FACS) was then performed immediately after staining.
Cells (5×10^5 cells/well) were pre-incubated for 3 h at 37° C. in the presence or absence of 20 KM of the pan-caspase inhibitor z-VAD-fmk (R&D Systems, MN, USA) in DMSO. Cells were then treated with LB100 for 24h, and processed in the Annexin V-binding assay as described above.

Bcl-2 = test: Immunohistochemistry staining of SKM-1 xenograft for Bcl-2; set-up: species or system NOD/SCID mice; details: in-vivo
Description: Immunohistochemical staining was performed on the paraffin-embedded sections. Tissue sections were dewaxed and rehydrated before performing antigen retrieval. Anti-BCL-2 (Cell Signaling Technology, MA, USA) were applied at 1:100 dilution in PBS to incubate slides overnight at 4° C., and incubated with an HRP-conjugated secondary antibody for 1 hat room temperature. DAB was used for color development, and dark brown staining was considered positive. All slides were photographed with optical microscopy Olympus BX51.

PP2A = target: T1, PP2A (Homo sapiens, UniProt P67775); test: PP2A phosphatase activity assay in SKM-1 cells; assay type: cell-based; details: 10 μM LB100, SKM-1 cells
T1 construct: endogenous in cells; host or cells: SKM-1 cells (lysate, immunoprecipitated with Millipore kit)
T1 sequence (P67775 whole entry): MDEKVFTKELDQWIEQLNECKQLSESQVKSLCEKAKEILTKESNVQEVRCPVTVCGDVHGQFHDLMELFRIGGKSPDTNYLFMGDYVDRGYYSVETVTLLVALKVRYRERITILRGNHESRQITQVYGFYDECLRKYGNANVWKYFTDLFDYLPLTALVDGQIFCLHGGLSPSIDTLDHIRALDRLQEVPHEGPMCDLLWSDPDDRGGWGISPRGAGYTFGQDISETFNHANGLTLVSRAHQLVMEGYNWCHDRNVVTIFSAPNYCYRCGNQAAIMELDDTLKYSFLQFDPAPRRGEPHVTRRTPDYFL
T1 sequence (P30153 2-589 partner limits assumed): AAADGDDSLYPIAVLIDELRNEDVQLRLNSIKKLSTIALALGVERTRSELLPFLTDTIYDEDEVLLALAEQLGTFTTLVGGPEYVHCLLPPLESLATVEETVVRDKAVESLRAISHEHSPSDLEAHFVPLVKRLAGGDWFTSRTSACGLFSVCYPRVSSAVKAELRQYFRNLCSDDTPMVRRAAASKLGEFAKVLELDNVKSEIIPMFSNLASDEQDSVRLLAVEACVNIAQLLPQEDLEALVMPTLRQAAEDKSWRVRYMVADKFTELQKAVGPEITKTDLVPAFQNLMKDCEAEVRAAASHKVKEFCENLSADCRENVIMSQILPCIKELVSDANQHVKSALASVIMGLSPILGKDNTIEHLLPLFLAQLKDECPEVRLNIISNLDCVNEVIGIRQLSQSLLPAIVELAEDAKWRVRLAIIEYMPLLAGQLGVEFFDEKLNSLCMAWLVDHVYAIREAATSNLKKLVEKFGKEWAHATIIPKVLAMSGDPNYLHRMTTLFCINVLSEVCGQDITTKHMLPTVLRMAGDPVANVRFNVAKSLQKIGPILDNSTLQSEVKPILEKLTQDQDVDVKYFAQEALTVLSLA
Description: 1×IV SKM-1 cells were seeded into 6-well microtiter plates and treated with different concentrations of LB100 (0, 1.25, 2.5, 5, 10 μNI). […] Cell lysate was sonicated for 10 seconds and then centrifuged at 20,000 g for 15 minutes. Supernatant was then assayed with the PP2A Immunoprecipitation Phosphatase Assay Kit (Millipore, Mass., USA).

Kasumi-1 = test: MTT cytotoxicity assay, Kasumi-1; assay type: cell-based; details: Homo sapiens; Kasumi-1, at 4 h after treatment
Description: as §1, §3

SKM-1 cells [4] = test: Hoechst staining of nuclear morphology; assay type: cell-based, human; details: 24 h, varying doses
Description: SKM-1 cells were treated with LB100 for 24 h. Cells were then permeabilized with 0.5% Triton X-100 for 30 min, washed with PBS, stained with 10 μg/ml Hoechst for 30 min, and washed with PBS. Nuclear morphology was observed immediately after using a BX51 fluorescence microscope (Olympus, Tokyo, Japan).

miR-181b-1 [5] = test: MicroRNA microarray analysis; assay type: cell-based, human; details: SKM-1, exposure 12h
From the text: Total RNA was extracted from SKM-1 and LB100-treated-SKM-1 cells using the RNeasy mini kit (Qiagen, Calif., USA) according to the manufacturer's instructions. The miRNA microarray analysis was done by KangChen (Shanghai, China).

SKM-1 cells [6] = test: Western blotting of SKM-1 cells; assay type: cell-based, human
Description: Cells were washed twice in PBS and lysed in 10 mM Tris, 1 mM ethylenediaminetetra-acetic acid (EDTA), 10 mM KCl, 0.3% Triton, and 0.1 mM phenylmethanesulfonyl fluoride (PMSF). Equal amounts of protein (30-50 μg) were separated on 8-12% SDS-polyacrylamide gels, and transferred to polyvinylidene fluoride (PVDF) membranes. Membranes were blocked with 5% non-fat milk and incubated overnight with the appropriate primary antibody at manufacturer-specified dilutions. Primary monoclonal antibodies were against I3-ACTIN (Santa Cruz Biotechnology, CA, USA); CDCl25C, p-CDCl25C, CDCl2, p-CDCl2, PP2A-A, PP2A-B, PP2A-C (Epitomics, USA); AKT, p-AKT, PARP, RAS, p-MEK, p-ERK, Raf, p-CamKII, Bc.1-2 and p-Bd-2 (Cell Signaling Technology, MA, USA).
Next, the membranes were washed three times in TBS-T buffer (10 mm Tris-HCl, pH 8, 150 mm NaCl, 0.1% Tween 20), and incubated for 1 h with the corresponding horseradish peroxidase (HRP)-conjugated secondary antibody at 1:5,000 dilution. Bound secondary antibody was detected using an enhanced chemiluminescence (ECL) system (Pierce Biotechnology, IL, USA).

SKM-1 cells [7] = test: Leukemia colony-forming assay; assay type: cell-based, human; details: 7 days in methylcellulose medium
Description: LB100-treated SKM-1 cells were seeded in a methylcellulose medium and incubated for 7 d at 37° C. The number of leukemia colony-forming units (CFU-Ls) containing >50 cells were determined manually under a light microscope (Olympus).

## COc1cccc2c1C(=O)c1c(O)c3c(c(O)c1C2=O)C[C@@](O)(C(C)=O)C[C@@H]3O[C@H]1C[C@H](N)[C@H](O)[C@H](C)O1 [DNR, Daunorubicin, reference compound]
SKM-1
  SKM-1 cell viability: significantly diminished in a dose-dependent manner
SKM-1 xenografts
  tumor volume: sharp decrease

## CN1CCN(C(=O)C2C(C(=O)O)[C@H]3CC[C@@H]2O3)CC1 (stereo partly drawn) [LB100]
U937
  IC50: 3.44 µM
miR-181b-1 [1]
  relative expression of miR-181b-1, increase: about 2 fold
SKM-1
  SKM-1 cell viability: significantly diminished in a dose-dependent manner
SKM-1; Homo sapiens, SKM-1, at 4 h after treatment
  IC50: 5.35 µM
THP-1
  IC50: 13.5 µM
HL-60
  IC50: 3.36 µM
K562
  IC50: 7 µM
SKM-1 xenografts
  tumor volume: sharp decrease
SKM-1 cells [2]; SKM-1 (13.4% before)
  G2/M phase cells: 31.5%
SKM-1 cells [2]; SKM-1 (36.7% before)
  G0/G1 phase cells: 9.8%
SKM-1 cells [3]; 1.25 μM, 24h (3.13% in the absence of LB100)
  fraction of apoptotic sAML cells: 8.51%
SKM-1 cells [3]; 2.5 μM, 24h
  fraction of apoptotic sAML cells: 13.61%
SKM-1 cells [3]; 5 μM, 24h
  fraction of apoptotic sAML cells: 37%
SKM-1 cells [3]; 10 μM, 24h
  fraction of apoptotic sAML cells: 65.27%
SKM-1 cells [3]; absence of z-VAD-FMK
  rate of apoptosis: 62%
SKM-1 cells [3]; presence of pan-caspase inhibitor z-VAD-FMK
  rate of apoptosis: 16%
Bcl-2
  Bcl-2 expression, immunohistochemistry: markedly downregulated
PP2A
  reduction of the activity of PP2A: up to 60%
Kasumi-1
  IC50: 4.38 µM
SKM-1 cells [4]
  nuclear morphology after Hoechst staining: increased amounts of condensed, pyknotic nudei
miR-181b-1 [5]
  miR-181b-1 in microRNA profiling: significantly up-regulated
SKM-1 cells [6]; 5 μM LB100, SKM-1
  CDCl2 and CDCl25C total- and phosphorylated-protein levels: markedly downregulated
SKM-1 cells [6]; after LB100 administration
  phosphorylated Bcl-2 and CamKII: increased
SKM-1 cells [6]; immunoblotting, 24h exposure, SKM-1
  caspase-3 and PARP cleavage: cleavage in a concentration-dependent manner
SKM-1 cells [6]; in-vitro, SKM-1, 5 μM LB100
  Bcl-2 expression, immunoblot: markedly downregulated
SKM-1 cells [6]; western blot, 5 μM LB100 for 12 h
  expression of the three PP2A subunits (PP2A-A, PP2A-B, PP2A-C): moderately decreased
SKM-1 cells [6]; western blot, sAML cells
  levels of p-AKT: increased
SKM-1 cells [7]
  growth of SKM-1 cells, colony formation: dose-dependent inhibitory activity
